Key:
[1] = tested on: isolierte linke Meerschweinchenvorhof; assay: Isolated, electrically stimulated left guinea pig atrium: refractory period, contraction force and excitability; assay type: cell-based, Meerschweinchen; settings: for Hemmung der Kontraktionskraft / Verlängerung der RP / inhibition at 10 µM / percent prolongation of refractory period at 10 µM: concentration not given; for ERP / EKK: ratio of prolongation of RP to inhibition of contraction force; for inhibition at 100 µM / inhibition at 10 µM: Cavia porcellus, read-out: Hemmung der Kontraktionskraft
Description: Für das Screening wurde […]. Die Vorhöfe wurden durch Rechteckimpulse ( ∼ 3 msec) mit einer Basisfrequenz von 2 Hz […]. Nun wurde mittels eines Extrastimulus, dessen […] und ohne Verbindung bestimmt. […] Um zwischen Na-antagonistischen und anderen Wirkungen unterscheiden zu […] RP, die Kontraktionskraft und die Erregbarkeit des […] untersucht.

[2] = tested on: teilweise depolarisierten Papillarmuskel; assay: Partially depolarised papillary muscle (extracellular potassium raised about 4-fold): mechanism of the negative inotropic effect; assay type: cell-based; settings: partially depolarised membranes; cause of the negative inotropic effect; result in words
Description: Weitere Untersuchungen wurden am teilweise depolarisierten Papillarmuskel durchgeführt, um zwischen der negativ inotropen Wirkung, welche auf Blockade der schnellen Na⁺-Kanälchen und einer, die auf anderen Mechanismen beruht, zu unterscheiden. Im Versuch wurde die teilweise Depolarisation der Herzmuskelzellmembran durch Erhöhung der extrazellulären Kalium-Konzentration auf das ca. 4-fache erreicht.

[3] = 10 µM according to b47, atrium stimulated at 2 Hz, mean ± spread
[4] = 100 µM, atrium stimulated at 2 Hz, mean ± spread, read-out: Verlängerung der RP
[5] = 100 µM, atrium stimulated at 2 Hz, mean ± spread
[6] = 10 µM according to b47, atrium stimulated at 2 Hz, mean ± spread, read-out: Verlängerung der RP

Compound | Hemmung der Kontraktionskraft [1, 3] | Verlängerung der RP [1, 3] | ERP / EKK ([1]; 10 µM according to b47) | inhibition at 100 µM [1, 5] [%] | inhibition at 10 µM [1, 3] [%] | percent prolongation of refractory period at 10 µM [1, 6] [%] | also measured
1-[3-(2-Hydroxy-3-(4-methyl)-1-piperidinyl)-propoxy)-4-methyl-2-thienyl]-3-phenyl-1-propanon-hydrochlorid [LG 84-6-11] | 59 ± 3,3% | 157 ± 10,0% | 2,7 |  |  |  | 
1-[4-Methyl-3-(2-hydroxy-3-sek.butylaminopropoxy)-2-thienyl]-3-phenyl-1-propanon-chlorhydrat [LG 84-6-08] | 65 ± 4,0% | 129 ± 11,0% | 2,0 |  |  |  | 
C=C[C@H]1CN2CC[C@H]1C[C@@H]2[C@@H](O)c1ccnc2ccc(OC)cc12 [Chinidin, reference compound] |  |  |  | 77 ± 4 |  |  | activation at 100 µM [1, 4]: > 161%
CCC(C)(C)NCC(O)COc1c(C)csc1C(=O)CCc1ccccc1.Cl (stereo not drawn) [LG 84-6-07, 1-[3-(2-Hydroxy-3-tert.pentylaminopropoxy)-4-methyl-2-thienyl]-3-phenyl-1-propanon-hydrochlorid] |  |  | 1,3 |  | 52 ± 4 | 66 ± 13 | negativ incorope Komponente [2]: nur durch den Na⁺-Antagonismus hervogerufen; Verhältnis zwischen der Verlängerung der Refraktärperiode und der gleichzeitig beobachteten Kontraktionskraftsenkung ([1]; comparison among the tested antiarrhythmics, result in words): am größten; Dosen für Verlängerung der Refraktärperiode gegenüber Senkung der Kontraktionskraft ([1]; doses for prolonging the refractory period compared with doses for lowering contraction force, result in words): mit wesentlich kleineren Dosen erzielt; Erregbarkeit des Vorhofes ([1]; result in words): Verminderung der Erregbarkeit des Vorhofes
Cc1csc(C(=O)CCc2ccccc2)c1OCC(O)CNCC(C)(C)C.Cl (stereo not drawn) [LG 84-6-09, 1-[3-(2-Hydroxy-3-(2,2-dimethylpropylamino)-propoxy)-4-methyl-2-thienyl]-3-phenyl-1-propanon-hydrochlorid] |  |  | 3,0 |  | 37 ± 4.5 | 112 ± 18 | 
CCN(CC)CC(=O)Nc1c(C)cccc1C [Lidocain, reference compound] |  |  |  | 17 ± 5 |  |  | percent prolongation of refractory period at 100 µM [1, 4]: 63 ± 6%; ERP / EKK ([1]; 100 µM): 3,7
